In patent US20230265151A1, “GIP/GLP1 CO-AGONIST COMPOUNDS” (priority 2020, published 2023) one finds EC50 and Emax data, which are given here for three molecules.

One may read the EC50 as the concentration needed to bring the measured effect to its halfway point. As a reminder, the Emax is the greatest response seen or fitted, relative to the assay's reference.

Where two headings read alike, the source gives them in different places. *1 amine or outer side, *2 acyl side, *3 side chain or, on linkers, in order; H or OH if unused. Where a SMILES comes first, the peptide text is derived from it. Side-chain parts run from the residue outwards. [ ]: non-standard residue; d: D form. The star is where a group is joined. Decanoyl(10-(4-HOOC-PhO)) = O=C(O)c1ccc(OCCCCCCCCCC(=O)*)cc1; αMePhe(2-F) = C[C@](N)(Cc1ccccc1F)C(=O)O; γGlu = O=C(O)[C@H](CCC(=O)[*:2])N[*:1]; αMeY = C[C@](N)(Cc1ccc(O)cc1)C(=O)O; αMeL = CC(C)C[C@](C)(N)C(=O)O; Orn = NCCC[C@H](N)C(=O)O; AEEA = NCCOCCOCC(=O)O; Aib = CC(C)(N)C(=O)O

Holding throughout (type): cell-based
One experiment addresses T1, hGCGR (Homo sapiens, UniProt P47871).
T1 construct: expressed in transfected cells
Nature of the experiment: Functional cAMP formation (HTRF) in HEK-293 clonal cells expressing hGCGR, 0.1% bovine casein, without or with 1.0% human serum albumin. A digest of the protocol:
(§1)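 Cells were stimulated with peptide for 30 min at 37° C, then lysed in buffer carrying cAMP-d2 and anti-cAMP Eu3+-cryptate for a competitive HTRF read after at least 60 min at room temperature. The 665/620 nm ratio was converted to nM cAMP against a standard curve.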
A general note: cAMP levels reflect the balance of adenylyl cyclase and phosphodiesterase activity.

In the next experiment the target is hGLP-1R (Homo sapiens, UniProt P43220). Nature of the experiment: Functional cAMP formation (HTRF) in HEK-293 clonal cells expressing hGLP-1R, 0.1% bovine casein, without or with 1.0% human serum albumin. Set-up: expressed in transfected cells. Conditions: for Emax: percent of maximal response to GLP-1(7-36)NH2; for EC50: geometric mean. In outline: as §1
The target in a further experiment is T2, hGIPR (Homo sapiens, UniProt P48546).
T2 construct: expressed in transfected cells
T2 sequence (P48546 22-466): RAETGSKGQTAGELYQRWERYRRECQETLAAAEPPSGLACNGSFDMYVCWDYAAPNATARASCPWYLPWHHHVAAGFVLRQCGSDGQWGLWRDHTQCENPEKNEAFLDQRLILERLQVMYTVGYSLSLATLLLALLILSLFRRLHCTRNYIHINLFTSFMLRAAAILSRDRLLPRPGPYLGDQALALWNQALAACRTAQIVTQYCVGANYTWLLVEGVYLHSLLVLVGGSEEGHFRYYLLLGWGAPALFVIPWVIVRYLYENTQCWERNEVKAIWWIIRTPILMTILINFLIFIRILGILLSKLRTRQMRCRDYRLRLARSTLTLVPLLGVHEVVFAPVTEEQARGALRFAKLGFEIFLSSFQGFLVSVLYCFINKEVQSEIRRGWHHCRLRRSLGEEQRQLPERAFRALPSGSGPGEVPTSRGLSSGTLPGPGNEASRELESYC
Nature of the experiment: Functional cAMP formation (HTRF) in HEK-293 clonal cells expressing hGIPR, 0.1% bovine casein, without or with 1.0% human serum albumin. To be noted: for EC50: cAMP, 0.1% bovine casein (no human serum albumin), geometric mean. A digest of the protocol: as §1

[1] abbreviates: hGCGR EC50, nM (SEM, n), cAMP, 37° C., 0.1% bovine casein (no human serum albumin), geometric mean.
Where [2] appears, read: hGLP-1R EC50, nM (SEM, n), cAMP, 37° C., 0.1% bovine casein (no human serum albumin).
Setting [3] is: hGIPR EC50, nM (SEM, n), 37° C.

T1 sequence (P47871 26-477): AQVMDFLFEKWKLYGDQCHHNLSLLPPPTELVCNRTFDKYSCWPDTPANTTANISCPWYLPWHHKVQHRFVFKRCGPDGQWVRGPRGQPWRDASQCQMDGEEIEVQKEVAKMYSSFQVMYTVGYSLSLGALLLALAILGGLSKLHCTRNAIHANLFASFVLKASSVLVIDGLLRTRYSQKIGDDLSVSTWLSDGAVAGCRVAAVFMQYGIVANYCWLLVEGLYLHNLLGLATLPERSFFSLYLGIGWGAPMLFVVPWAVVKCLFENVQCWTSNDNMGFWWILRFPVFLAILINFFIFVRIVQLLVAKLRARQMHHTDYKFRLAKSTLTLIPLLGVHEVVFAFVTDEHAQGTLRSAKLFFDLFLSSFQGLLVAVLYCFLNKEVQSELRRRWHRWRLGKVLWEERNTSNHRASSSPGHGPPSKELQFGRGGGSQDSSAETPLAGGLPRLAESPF
Sequence of hGLP-1R (P43220 24-463): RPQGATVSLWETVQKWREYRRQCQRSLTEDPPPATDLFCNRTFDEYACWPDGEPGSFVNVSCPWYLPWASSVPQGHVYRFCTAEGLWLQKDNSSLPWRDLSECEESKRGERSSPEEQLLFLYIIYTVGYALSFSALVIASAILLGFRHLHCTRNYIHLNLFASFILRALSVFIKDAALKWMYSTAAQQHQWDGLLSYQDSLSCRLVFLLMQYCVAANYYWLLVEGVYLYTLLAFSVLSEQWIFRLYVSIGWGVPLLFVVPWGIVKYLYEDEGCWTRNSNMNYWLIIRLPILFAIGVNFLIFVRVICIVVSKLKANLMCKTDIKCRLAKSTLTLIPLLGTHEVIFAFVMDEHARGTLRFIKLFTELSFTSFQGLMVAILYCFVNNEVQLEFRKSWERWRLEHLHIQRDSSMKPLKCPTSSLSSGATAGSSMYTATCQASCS

As to `CC[C@H](C)[C@H](NC(=O)[C@H](CCCN)NC(=O)[C@H](CC(=O)O)NC(=O)[C@H](CC(C)C)NC(=O)[C@](C)(CC(C)C)NC(=O)[C@@H](NC(=O)[C@H](CO)NC(=O)[C@H](Cc1ccc(OC)cc1)NC(=O)[C@H](CC(=O)O)NC(=O)[C@H](CO)NC(=O)[C@@H](NC(=O)[C@](C)(Cc1ccccc1F)NC(=O)[C@@H](NC(=O)CNC(=O)[C@H](CCC(=O)O)NC(=O)C(C)(C)NC(=O)[C@@H](N)Cc1ccc(O)cc1)[C@@H](C)O)[C@@H](C)O)[C@@H](C)CC)C(=O)N[C@@H](C)C(=O)N[C@@H](CCC(N)=O)C(=O)NC(C)(C)C(=O)N[C@@H](CCC(=O)O)C(=O)N[C@@H](Cc1ccccc1)C(=O)N[C@H](C(=O)N[C@@H](CCCCNC(=O)COCCOCCNC(=O)COCCOCCNC(=O)CC[C@H](NC(=O)CCCCCCCCCOc1ccc(C(=O)O)cc1)C(=O)O)C(=O)N[C@@](C)(Cc1ccc(O)cc1)C(=O)N[C@@H](CC(C)C)C(=O)N[C@H](C(=O)N[C@@H](CCCCNC(=O)COCCOCCNC(=O)COCCOCCNC(=O)CC[C@H](NC(=O)CCCCCCCCCOc1ccc(C(=O)O)cc1)C(=O)O)C(=O)NCC(=O)NCC(=O)N1CCC[C@H]1C(=O)N[C@@H](CO)C(=O)N[C@@H](CO)C(=O)NCC(=O)N[C@@H](C)C(=O)N1CCC[C@H]1C(=O)N1CCC[C@H]1C(=O)N1CCC[C@H]1C(=O)N[C@@H](CO)C(N)=O)[C@@H](C)CC)[C@@H](C)CC` [Example 279] (H-Y[Aib]EGT[αMePhe(2-F)]TSDY(Me)SI[αMeL]LD[Orn]IAQ[Aib]EFIK([AEEA-AEEA-γGlu-Decanoyl(10-(4-HOOC-PhO))])[αMeY]LIK([AEEA-AEEA-γGlu-Decanoyl(10-(4-HOOC-PhO))])GGPSSGAPPPS-NH2), the 50% effective concentration (EC50) was greater than 9950 nM on hGCGR (hGCGR EC50, nM (SEM, n), 0.1% bovine casein and 1.0% human serum albumin, 37° C., geometric mean); greater than 9950 nM at hGCGR (setting [1]); 36.6 nM at hGLP-1R (hGLP-1R EC50, nM (SEM, n), 0.1% bovine casein and 1.0% human serum albumin, 37° C.); 0.406 nM at hGLP-1R (setting [2]); 0.0305 nM at hGIPR (setting [3]). For the same molecule, the Emax at hGLP-1R (HEK293, read-out: hGLP-1R Emax, % ± SEM, 0.1% bovine casein and 1.0% human serum albumin, 37° C.) worked out at 114%; at hGLP-1R (HEK293, read-out: hGLP-1R Emax, % ± SEM, cAMP, 37° C., 0.1% bovine casein, arithmetic mean), 112%; on hGIPR (HEK293, read-out: hGIPR Emax, % ± SEM, 0.1% bovine casein and 1.0% human serum albumin, 37° C., percent of maximal response to GIP(1-42)NH2), 88.6%.

Regarding `CC[C@H](C)[C@H](NC(=O)[C@H](CC(C)C)NC(=O)[C@](C)(Cc1ccc(O)cc1)NC(=O)[C@@H](CCC(=O)O)NC(=O)[C@@H](NC(=O)[C@H](Cc1ccccc1)NC(=O)[C@H](CCCN)NC(=O)C(C)(C)NC(=O)[C@H](CCC(N)=O)NC(=O)[C@H](C)NC(=O)[C@H](CCCCNC(=O)COCCOCCNC(=O)COCCOCCNC(=O)CC[C@H](NC(=O)CCCCCCCCCOc1ccc(C(=O)O)cc1)C(=O)O)NC(=O)[C@H](CCCN)NC(=O)[C@H](CC(=O)O)NC(=O)[C@H](CC(C)C)NC(=O)[C@](C)(CC(C)C)NC(=O)[C@@H](NC(=O)C(C)(C)NC(=O)[C@H](Cc1ccc(O)cc1)NC(=O)[C@H](CC(=O)O)NC(=O)[C@H](CO)NC(=O)[C@@H](NC(=O)[C@](C)(Cc1ccccc1F)NC(=O)[C@@H](NC(=O)CNC(=O)[C@H](CCC(=O)O)NC(=O)C(C)(C)NC(=O)[C@@H](N)Cc1ccc(O)cc1)[C@@H](C)O)[C@@H](C)O)[C@@H](C)CC)[C@@H](C)CC)C(=O)N[C@@H](CCCCNC(=O)COCCOCCNC(=O)COCCOCCNC(=O)CC[C@H](NC(=O)CCCCCCCCCOc1ccc(C(=O)O)cc1)C(=O)O)C(=O)NCC(=O)NCC(=O)N1CCC[C@H]1C(=O)N[C@@H](CO)C(=O)N[C@@H](CO)C(=O)NCC(=O)N[C@@H](C)C(=O)N1CCC[C@H]1C(=O)N1CCC[C@H]1C(=O)N1CCC[C@H]1C(=O)N[C@@H](CO)C(N)=O` [Example 352] (H-Y[Aib]EGT[αMePhe(2-F)]TSDY[Aib]I[αMeL]LD[Orn]K([AEEA-AEEA-γGlu-Decanoyl(10-(4-HOOC-PhO))])AQ[Aib][Orn]FI[dE][αMeY]LIK([AEEA-AEEA-γGlu-Decanoyl(10-(4-HOOC-PhO))])GGPSSGAPPPS-NH2), the concentration for a half-maximal effect (EC50) at hGCGR (setting [1]) is greater than 9950 nM; at hGCGR (hGCGR EC50, nM (SEM, n), cAMP, 37° C., 0.1% bovine casein and 1.0% human serum albumin, geometric mean (SEM, n)) it was greater than 9950 nM; at hGLP-1R (setting [2]), 0.262 nM; at hGIPR (setting [3]), 0.0106 nM. The maximal effect (Emax) at hGLP-1R (HEK293, read-out: hGLP-1R Emax, % ± SEM, cAMP, 37° C., 0.1% bovine casein and 1.0% human serum albumin) turned out to be 93.5%; on hGIPR (HEK293, read-out: hGIPR Emax, % ± SEM, cAMP, 37° C., 0.1% bovine casein and 1.0% human serum albumin, percent of maximal response to GIP(1-42)NH2) it was 71.3%; at hGIPR (HEK293, read-out: hGIPR Emax, % ± SEM, cAMP, 37° C., 0.1% bovine casein, percent of maximal response to GIP(1-42)NH2, arithmetic mean), 98.3%.

For `CCCCCCCCCCCC(=O)N[C@@H](CCC(=O)NCCOCCOCC(=O)NCCOCCOCC(=O)NCCCC[C@H](NC(=O)[C@H](CCCN)NC(=O)[C@H](CC(=O)O)NC(=O)[C@H](CC(C)C)NC(=O)[C@](C)(CC(C)C)NC(=O)[C@@H](NC(=O)[C@H](CO)NC(=O)[C@H](Cc1ccncc1)NC(=O)[C@H](CC(=O)O)NC(=O)[C@H](CO)NC(=O)[C@@H](NC(=O)[C@](C)(Cc1ccccc1F)NC(=O)[C@@H](NC(=O)CNC(=O)[C@H](CCC(=O)O)NC(=O)C(C)(C)NC(=O)[C@@H](N)Cc1ccc(O)cc1)[C@@H](C)O)[C@@H](C)O)[C@@H](C)CC)C(=O)N[C@@H](C)C(=O)N[C@@H](CCC(N)=O)C(=O)NC(C)(C)C(=O)N[C@@H](CCC(=O)O)C(=O)N[C@@H](Cc1ccccc1)C(=O)N[C@H](C(=O)N[C@H](CCC(=O)O)C(=O)N[C@@](C)(Cc1ccc(O)cc1)C(=O)N[C@@H](CC(C)C)C(=O)N[C@H](C(=O)N[C@@H](CCC(=O)O)C(=O)NCC(=O)N[C@@H](CCCCNC(=O)COCCOCCNC(=O)COCCOCCNC(=O)CC[C@H](NC(=O)CCCCCCCCCCC)C(=O)O)C(=O)N1CCC[C@H]1C(=O)N[C@@H](CO)C(=O)N[C@@H](CO)C(=O)NCC(=O)N[C@@H](C)C(=O)N1CCC[C@H]1C(=O)N1CCC[C@H]1C(=O)N1CCC[C@H]1C(=O)N[C@@H](CO)C(N)=O)[C@@H](C)CC)[C@@H](C)CC)C(=O)O` [Example 140], the EC50 at hGCGR (cAMP, incubated at 37° C., 0.1% bovine casein (no human serum albumin), geometric mean, read-out: hGCGR EC50, nM (SEM, n)) is greater than 9950 nM; on hGLP-1R (cAMP, incubated at 37° C., 0.1% bovine casein (no human serum albumin), read-out: hGLP-1R EC50, nM (SEM, n)) it was 0.131 nM; at hGIPR (incubated at 37° C., read-out: hGIPR EC50, nM (SEM, n)), 0.0121 nM. Besides, at hGIPR (HEK293, percent of maximal response to GIP(1-42)NH2, 37° C., 0.1% bovine casein, arithmetic mean, read-out: hGIPR Emax, % ± SEM), the Emax was 98.5 ± 1.71%.
